Source: ChEMBL document CHEMBL3217590, “Discovery of a new class of dithiocarbamates and rhodanine scaffolds as potent antifungal agents: synthesis, biology and molecular docking” (Medchemcomm, 2012)
Converted amounts (≈) assume the structure as drawn.

Experiments:
Candida albicans [1] = experiment: Anticandidal activity against Candida albicans CDRI after 24 to 48 hrs by broth microdilution technique; format: functional
Candida parapsilosis = experiment: Antifungal activity against Candida parapsilosis ATCC22019 after 24 to 48 hrs by broth microdilution technique; format: functional; settings: Lodderomyces parapsilosis
Candida albicans [2] = experiment: Anticandidal activity against Candida albicans ATCC-MYA 2950 after 24 to 48 hrs by broth microdilution technique; format: functional
Sporothrix schenckii = experiment: Antifungal activity against Sporothrix schenckii after 72 to 96 hrs by broth microdilution technique; format: functional
Cryptococcus neoformans = experiment: Antifungal activity against Cryptococcus neoformans after 24 to 48 hrs by broth microdilution technique; format: functional
Candida albicans [3] = experiment: Anticandidal activity against Candida albicans MTCC183 after 24 to 48 hrs by broth microdilution technique; format: functional
Candida albicans [4] = experiment: Anticandidal activity against Candida albicans ATCC14053 after 24 to 48 hrs by broth microdilution technique; format: functional
Candida albicans [5] = experiment: Anticandidal activity against amphotericin-B resistant Candida albicans after 24 to 48 hrs by broth microdilution technique; format: functional
[6] = tested on: Trichophyton mentagrophytes; experiment: Antifungal activity against Trichophyton mentagrophytes after 72 to 96 hrs by broth microdilution technique; format: functional
Candida albicans [7] = experiment: Anticandidal activity against Candida albicans ATCC10231 after 24 to 48 hrs by broth microdilution technique; format: functional
Candida albicans [8] = experiment: Antifungal activity against Candida albicans after 24 to 48 hrs by broth microdilution technique; format: functional
Candida albicans [9] = experiment: Ratio of fluconazole MIC to compound MIC against amphotericin-B resistant Candida albicans after 24 to 48 hrs by broth microdilution technique; format: functional
Candida albicans [10] = experiment: Anticandidal activity against Candida albicans ATCC750 after 24 to 48 hrs by broth microdilution technique; format: functional
Candida albicans [11] = experiment: Anticandidal activity against Candida albicans isolated from patient after 24 to 48 hrs by broth microdilution technique; format: functional
Aspergillus fumigatus = experiment: Antifungal activity against Aspergillus fumigatus after 72 to 96 hrs by broth microdilution technique; format: functional
L929 [12] = experiment: Cytotoxicity against mouse L929 cells assessed as decline in cell survival at 12.5 to 50 ug/ml after 24 hrs by spectrophotometric analysis; format: cell-based; settings: l929, 24 h
L929 [13] = experiment: Cytotoxicity against mouse L929 cells assessed as morphological changes up to 3.12 ug/ml after 24 hrs by giemsa staining based phase contrast microscopy; format: cell-based; settings: l929, 24 h

| Structure (SMILES) | MIC (Candida parapsilosis) [µg/mL] | MIC (Sporothrix schenckii) [µg/mL] | MIC (Cryptococcus neoformans) [µg/mL] | MIC [6] [µg/mL] | MIC (Candida albicans [8]) [µg/mL] | MIC (Aspergillus fumigatus) [µg/mL] | MIC (Candida albicans [1]) [µg/mL] | MIC (Candida albicans [2]) [µg/mL] | MIC (Candida albicans [3]) [µg/mL] | MIC (Candida albicans [4]) [µg/mL] | MIC (Candida albicans [5]) [µg/mL] | MIC (Candida albicans [7]) [µg/mL] | Ratio (Candida albicans [9]) | MIC (Candida albicans [10]) [µg/mL] | MIC (Candida albicans [11]) [µg/mL] | Activity (L929 [12]) | Activity (L929 [13]) |
| --- | --- | --- | --- | --- | --- | --- | --- | --- | --- | --- | --- | --- | --- | --- | --- | --- | --- |
| O=C1/C(=C/c2cccnc2)SC(=S)N1Cc1ccncc1 | 6.25 (≈ 19.9 µM) | 1.56 (≈ 4.98 µM) | 3.12 (≈ 9.96 µM) | 6.25 (≈ 19.9 µM) | 1.56 (≈ 4.98 µM) | 25 (≈ 79.8 µM) | 1.56 (≈ 4.98 µM) | 1.56 (≈ 4.98 µM) | 0.78 (≈ 2.49 µM) | 0.78 (≈ 2.49 µM) | 6.25 (≈ 19.9 µM) | 3.12 (≈ 9.96 µM) | 1 | 3.12 (≈ 9.96 µM) | 3.12 (≈ 9.96 µM) | – | – |
| FC(F)(F)c1ccc(CSC(=S)NCc2ccncc2)cc1 | 1.56 (≈ 4.56 µM) | 6.25 (≈ 18.3 µM) | 1.56 (≈ 4.56 µM) | 6.25 (≈ 18.3 µM) | 1.56 (≈ 4.56 µM) | 50 (≈ 146 µM) | 1.56 (≈ 4.56 µM) | 1.56 (≈ 4.56 µM) | 0.78 (≈ 2.28 µM) | – | 12.5 (≈ 36.5 µM) | – | – | 3.12 (≈ 9.11 µM) | 3.12 (≈ 9.11 µM) | Toxic | Non-toxic |
| CCc1ccc(/C=C2\SC(=S)N(Cc3ccncc3)C2=O)cc1 | > 50 | > 50 | > 50 | > 50 | > 50 | > 50 | – | – | – | – | – | – | – | – | – | – | – |
| COc1ccc(/C=C2\SC(=S)N(Cc3ccncc3)C2=O)cc1OC | 25 (≈ 67.1 µM) | > 50 | 50 (≈ 134 µM) | > 50 | 25 (≈ 67.1 µM) | > 50 | – | – | – | – | – | – | – | – | – | – | – |
| O=C1/C(=C/c2ccc(OCCOc3ccc(/C=C4\SC(=S)N(Cc5ccncc5)C4=O)cc3)cc2)SC(=S)N1Cc1ccncc1 | > 50 | > 50 | > 50 | > 50 | > 50 | > 50 | – | – | – | – | – | – | – | – | – | – | – |
| O=C1CSC(=S)N1Cc1ccncc1 | 6.25 (≈ 27.9 µM) | 1.56 (≈ 6.95 µM) | 6.25 (≈ 27.9 µM) | 3.12 (≈ 13.9 µM) | 1.56 (≈ 6.95 µM) | 12.5 (≈ 55.7 µM) | 6.25 (≈ 27.9 µM) | 6.25 (≈ 27.9 µM) | 0.78 (≈ 3.48 µM) | 1.56 (≈ 6.95 µM) | 3.12 (≈ 13.9 µM) | 6.25 (≈ 27.9 µM) | 2 | 6.25 (≈ 27.9 µM) | 6.25 (≈ 27.9 µM) | Toxic | Non-toxic |
| CCCCSC(=S)NCc1ccncc1 | 6.25 (≈ 26 µM) | 3.12 (≈ 13 µM) | 3.12 (≈ 13 µM) | 3.12 (≈ 13 µM) | 3.12 (≈ 13 µM) | 50 (≈ 208 µM) | 12.5 (≈ 52 µM) | 12.5 (≈ 52 µM) | 1.56 (≈ 6.49 µM) | 3.12 (≈ 13 µM) | 1.56 (≈ 6.49 µM) | 6.25 (≈ 26 µM) | 5 | 12.5 (≈ 52 µM) | 12.5 (≈ 52 µM) | Toxic | Non-toxic |
| O=C1/C(=C/c2ccccc2)SC(=S)N1Cc1ccncc1 | 50 (≈ 160 µM) | 25 (≈ 80 µM) | 50 (≈ 160 µM) | 50 (≈ 160 µM) | 25 (≈ 80 µM) | > 50 | – | – | – | – | – | – | – | – | – | – | – |

More lines, main results first:

| MIC (Candida parapsilosis) [µg/mL] | MIC (Sporothrix schenckii) [µg/mL] | MIC (Cryptococcus neoformans) [µg/mL] | MIC [6] [µg/mL] | MIC (Candida albicans [8]) [µg/mL] | MIC (Aspergillus fumigatus) [µg/mL] | Structure (SMILES) | MIC (Candida albicans [1]) [µg/mL] | MIC (Candida albicans [2]) [µg/mL] | MIC (Candida albicans [3]) [µg/mL] | MIC (Candida albicans [4]) [µg/mL] | MIC (Candida albicans [5]) [µg/mL] | MIC (Candida albicans [7]) [µg/mL] | Ratio (Candida albicans [9]) | MIC (Candida albicans [10]) [µg/mL] | MIC (Candida albicans [11]) [µg/mL] | Activity (L929 [12]) | Activity (L929 [13]) |
| --- | --- | --- | --- | --- | --- | --- | --- | --- | --- | --- | --- | --- | --- | --- | --- | --- | --- |
| > 50 | > 50 | > 50 | > 50 | > 50 | > 50 | O=C1/C(=C/c2ccc(OCCCOc3ccc(/C=C4\SC(=S)N(Cc5ccncc5)C4=O)cc3)cc2)SC(=S)N1Cc1ccncc1 | – | – | – | – | – | – | – | – | – | – | – |
| 50 (≈ 124 µM) | 25 (≈ 62.1 µM) | 50 (≈ 124 µM) | 50 (≈ 124 µM) | 12.5 (≈ 31.1 µM) | > 50 | COc1cc(/C=C2\SC(=S)N(Cc3ccncc3)C2=O)cc(OC)c1OC | – | – | – | – | – | – | – | – | – | – | – |
| > 50 | > 50 | > 50 | > 50 | > 50 | > 50 | O=C1/C(=C/c2ccc(OCCCCCOc3ccc(/C=C4\SC(=S)N(Cc5ccncc5)C4=O)cc3)cc2)SC(=S)N1Cc1ccncc1 | – | – | – | – | – | – | – | – | – | – | – |
| 50 (≈ 146 µM) | > 50 | > 50 | > 50 | 50 (≈ 146 µM) | > 50 | COc1ccc(/C=C2\SC(=S)N(Cc3ccncc3)C2=O)cc1 | – | – | – | – | – | – | – | – | – | – | – |
